Test results published in patent US5736529A, “Use of NAD-related compounds in the treatment of neural trauma to inhibit neurodegeneration” (priority 1996, dated 1998).

Key:
DNA in brain of mice = assay type: in vivo, mouse (8 month old C47BL/6); conditions: 21.9 mg/kg t-BuOOH ICV; 48 hours; 8 month old mice
Protocol: A gel electrophoresis was performed to investigate whether the DNA fragmentation that is observed at the end of 48 hours is due to apoptosis or not (FIG. 7). 8 month old C47BL/6 mice were treated with ICV with 21.9 mg/kg t-BuOOH 48 hours prior to removal of the brains. Brains were added to lysing buffer and centrifuged. The supernatants were collected as in the DNA fragmentation assay. The samples were extracted with an equal volume of phenol/chloroform/isoamyl alcohol (25:24:1). The DNA in the aqueous phase was precipitated by adding an equal volume of 100% ethanol and maintained at -20° C. overnight. DNA was collected by centrifugation at 12,000 g for 25 minutes, air dried and resuspended in TBE buffer (90 mM Tris, 90 mM boric acid and 2 mM EDTA, pH 8.0). Horizontal electrophoresis was performed for 2 hours at 100 volts in a 0.75% agarose gel with TBE buffer. The gel was stained with ethidium bromide and photographed by UV transillumination.

[1] = HPLC determination of tBuOOH in mice brains (pharmacokinetic profile); assay type: in vivo, mouse (male C57BL/6)
Protocol: Male C57BL/6 mice, 8 months old, were treated ICV with 110 mg/kg of tBuOOH. At various times, brains were removed, dissected and frozen on dry ice. Later the brains were homogenized in acetonitrile and centrifuged for 5 minutes at 12,000 g.

DNA = test: EPR detection of radicals on mixing DNA and tBuOOH in the presence of DMPO
Source text: Therefore, DNA fragmentation is produced following HO. and other radicals induced DNA damage. Necrotic degeneration probably occurs within the first few hours after tBuOOH administration.

NADPH = test: Pyridine dinucleotide quantitation, NADPH in brain regions; assay type: in vivo, mouse (male C57BL/6); conditions: 110 mg/kg ICV, 8 month old mice
Source text: NADPH and NADH are stable in base. Fortunately, the cyanide reaction proceeds optimally in base.

C57BL/6 mice = test: Behavior and survival of mice after ICV tBuOOH; assay type: in vivo, mouse (male C57BL/6)
Protocol: In general male C57BL/6 mice (2, 8 or 24 months old) were anesthetized with ketamine and xylazine (200 and 2 mg/kg, ip). They were injected ICV with tBuOOH in doses of approximately 22 or 110 mg/kg. This amounts to 1 or 5 μl of a 70% solution of tBuOOH injected slowly into a lateral cerebral ventricle. A mouse brain weighs about 400 mg. […] Animals recovered from anesthesia about 30 minutes or so after tBuOOH administration. […] Low dose mice survived for 48 hours or more.

glutathione peroxidase = conditions: cited from earlier work
NAD = conditions: 110 mg/kg ICV; 8 month old mice
Protocol: Male C57 B 1/6 mice, 8 months old, were treated ICV with tBuOOH (110 mg/kg) and maintained for 2, 5, 20 or 120 minutes. Anesthetized tBuOOH treated mice were immersed in liquid nitrogen to freeze their brains. The frozen brains were removed and dissected over dry ice. The brain regions were homogenized and analyzed by HPLC to determine NAD, NADH, NADP and NADPH levels as described previously. It is very important to stabilize the pyridine dinucleotides to prevent artifactual oxidation. NAD and NADP were stabilized by homogenization of brain regions in a cyanide containing solution. The cyanide reacts with the compounds forming cyano adducts that are stable. NADPH and NADH were stabilized by homogenizing brain regions in basic solution. NADPH and NADH are stable in base. Fortunately, the cyanide reaction proceeds optimally in base. Therefore, use of basic cyanide solutions during the homogenization produced optimal stabilization of NAD, NADP, NADH and NADPH. Following extraction with chloroform, centrifugation at 12,000 g for 5 minutes at 5° C., and filtration through 0.45μ positively charged nylon filters to remove DNA, the supernatants were injected onto a reverse phase HPLC column ("REXCHROME" ODS 5μ, Regis, Morton Grove, Ill.). Fluorescence detection (330 nm, excitation, 460 nm emission) was used to detect fluorescent NADH, NADPH and the cyano adducts of NAD and NADP.

24 month old mice = conditions: 24 month old mice; 21.9 mg/kg t-BuOOH only
[2] = system: DNA in brain regions of C57BL/6 mice; test: Second experiment, tBuOOH induced DNA fragmentation (FIG. 2, FIG. 3); assay type: in vivo, mouse (male C57BL/6)
Protocol: A second experiment was conducted to measure the degree of DNA fragmentation. […] Male C57BL/6 mice, of ages 2, 8 or 24 months old, were treated with tBuOOH ICV. Mice in the 20 minute group were treated with 110 mg/kg of tBuOOH and maintained for 20 minutes until brains were removed and analyzed for DNA fragmentation. This dose of tBuOOH induces cellular necrosis in a number of brain regions. Mice in the 48 hour group were given 22 mg/kg of tBuOOH and maintained for 48 hours. This dose of tBuOOH induces apoptosis and a small amount of necrosis in a number of brain regions.

[3] = in vivo; cited from earlier work
apoptotic cells in brain = conditions: 21.9 mg/kg ICV; 48 hours; most abundant in thalamus and pons
Protocol: The purpose of the apoptosis staining was to identify individual cells that may have undergone apoptosis. Residues of digoxigenin nucleotide were added to the DNA by an enzyme terminal deoxynucleotidyl transferase (TdT) which catalyzes the addition of deoxyribonucleotide triphosphate to the 3'-OH end of single and double stranded DNA. Thus the targets for labeling are the numerous new 3'-OH DNA ends generated by DNA fragmentation, easily observable in morphologically identifiable nuclei and apoptotic bodies. The sections were then incubated with an antibody to digoxigenin residues. The antibody was coupled to peroxidase allowing visualization with 3,3'-diaminobenzidine. Other sections were stained with cresyl violet.
A dose of 21.9 mg/kg of tBuOOH was administered ICV to C57BL/6 mice. The mice were anesthetized 48 hours after the tBuOOH administration and perfused through the left cardiac ventricle with 0.175M sodium phosphate and 0.155M sodium chloride (pH 7.5, PBS), then with 4% formaldehyde and 0.2% glutaraldehyde in PBS for six minutes with each solution at room temperature. The brains were then removed from the cranium after 2 hours of fixation and sliced coronally into 50μ sections with a vibrating microtome.
In order to detect individual cells undergoing apoptosis, the In Situ Apoptosis Detection Kit, (Oncor, Gaithersburg, Md.) was used. […]

CC(C)(C)OO [tBuOOH, t-butylhydroperoxide]
DNA fragments on gel electrophoresis (DNA in brain of mice): Oligosomal sized DNA fragments were observed along with a smear of fragmentation | toxin concentration relative to the initial concentration within 5 minutes ([1]; 110 mg/kg ICV, 8 month old mice): less than 50% | tBuOOH concentration curve in 2 month old mice ([1]; compared with 8 month old mice): virtually identical curve | concentration at 10 min ([1]; mouse, brain, icv or intrathecal, 110 mg/kg ICV, 8 month old mice): ~1000 µM | half-life ([1]; mouse, icv or intrathecal, 110 mg/kg ICV, depending on the brain region): 4 to 20 min | clearance of tBuOOH from the brain ([1]; striatum of 8 month old mice, 110 mg/kg ICV): very rapid clearance of tBuOOH from the brain in the initial period, followed by a slower clearance | radicals produced by mixing DNA and tBuOOH (DNA): produces HO. and other radicals | time for NADPH to return to control values (NADPH): ≤ 5 min | NADPH oxidation (NADPH; every brain region): oxidized rapidly | behavior of low dose animals (C57BL/6 mice; about 22 mg/kg ICV): move about freely and resemble mice treated ICV with 0.9% saline | appearance of high dose mice and death (C57BL/6 mice; about 110 mg/kg ICV): frequently appeared inactive until death | time of death after treatment (C57BL/6 mice; high dose (about 110 mg/kg ICV)): about 2 hours | survival (C57BL/6 mice; low dose (about 22 mg/kg ICV)): ≥ 48 h | detoxification by glutathione peroxidase (glutathione peroxidase): detoxified by glutathione peroxidase | NAD levels after tBuOOH (NAD): slowly and partially depleted | deaths (24 month old mice): Three out of six | DNA fragmentation in the cerebellum ([2]; 2, 8 and 24 month old mice, 48 hours): increased significantly | DNA fragmentation in the cortex ([2]; 2 and 8 month old mice): no increase in DNA fragmentation in the cortex | DNA fragmentation in the striatum, midbrain and hippocampus ([2]; 2 month old mice): increased DNA fragmentation | tBuOOH induced necrosis in the thalamus at 20 minutes ([2]; 8 and 24 month old vs 2 month old mice): 8 and 24 month old mice are more sensitive than 2 month old mice | DNA fragmentation in the cortex ([2]; 24 month old mice, also found in the hippocampus): robust increase in DNA fragmentation in the cortex | apoptosis induced DNA fragmentation in the thalamus ([2]; 48 hours after tBuOOH): found only in 24 month old mice | time of appearance of DNA fragments in the brain ([2]; after tBuOOH administration): ≤ 2 min | brain permeation [3]: readily permeate throughout the brain | apoptotic cells in the brain (apoptotic cells in brain): Apoptotic cells were found in many brain regions, but were most abundant in the thalamus and pons
